One data set has as its target T1, Y2 receptor (Homo sapiens, UniProt P49146).
T1 construct: host or cells: ACTOne HEK-293 cells
T1 sequence (P49146 1-381): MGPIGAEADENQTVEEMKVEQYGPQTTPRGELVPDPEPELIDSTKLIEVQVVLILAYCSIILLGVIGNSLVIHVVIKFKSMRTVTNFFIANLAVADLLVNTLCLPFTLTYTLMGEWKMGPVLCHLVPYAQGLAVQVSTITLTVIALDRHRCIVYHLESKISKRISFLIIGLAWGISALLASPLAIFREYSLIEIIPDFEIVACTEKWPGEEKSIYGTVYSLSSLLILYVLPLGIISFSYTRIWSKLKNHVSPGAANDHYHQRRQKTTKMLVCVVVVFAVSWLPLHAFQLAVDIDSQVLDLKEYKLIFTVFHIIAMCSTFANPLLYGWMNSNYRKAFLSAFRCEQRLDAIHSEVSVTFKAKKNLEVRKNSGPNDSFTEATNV
The data set can be described thus: Y2 receptor ACTOne based FLIPR assay (cAMP biosensor). It counts as cell-based.

Data set [1] can be described thus: Mini-pig PK assay (plasma half-life). The settings on record: Göttingen, minipig. An outline of the steps:
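Catheterised mini-pigs received compound i.v. at 10 nmol/kg in pH 4.0 phosphate/NaCl/tween vehicle, or alternatively i.v. or s.c. at 1–30 nmol/kg in pH 8.0 K2HPO4/tween. Stabilised plasma was sampled up to 13 days and assayed by LC-MS (LLOQ 2 nM). Half-life came from non-compartmental analysis of individual animal profiles.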

Another data set deals with T2, Y4 receptor (Homo sapiens, UniProt P50391).
T2 construct: host or cells: ACTOne HEK-293 cells
The data set can be described thus: Y4 receptor ACTOne based FLIPR assay (cAMP biosensor). It counts as cell-based. The source says:
ACTOne™ is an easily scaleable cAMP biosensor HTS platform for measurement of Gs and Gi coupled 7™ receptor signalling from BD Biosciences (San Jose, Calif.). The cells express a biosensor developed around a modified rat olfactory cyclic nucleotide gated (CNG) calcium channel—a fairly non-discriminatory ion channel that responds to cAMP and cGMP. The CNG has been engineered to be cAMP selective and thus function as a cAMP responsive biosensor that signals through calcium or membrane potential responsive dyes. Y2 or Y4 receptor expressing ACTOne HEK-293 cells are obtained from BD Biosciences. The cells are loaded with a calcium responsive dye that only distributes in the cytoplasm. Probenecid, an inhibitor of the organic anion transporter is added to prevent the dye from leaving the cell. A phosphodiesterase inhibitor is added to prevent formatted cAMP from being degraded. Isoproterenol (an β1/β2 agonist) is added to activate the adenylate cyclase. When an Y2 or Y4 receptor agonist is added, the adenylate cyclase is inactivated. The decreased calcium concentration in the cytoplasm is then detected as an increase in fluorescence. Together with the test substance, Isoproterenol at a concentration matching EC80, is added to all wells. • The cells are plated out in Greiner 384-well plates. […] The plates are covered with tinfoil to avoid light (the dye can be excited by the daylight, which results in higher baseline and variation). • The FLIPR (FLIPRtetra from Molecular Devices, CA, USA) adds 1 μl sample and 1 μl isoproterenol (0.05 μM final concentration) at the same time. • The fluorescence signal from the wells is measured 330 seconds after sample addition on the FLIPR.

Where [2] appears, read: Table 2, PP analogues, ACTOne HEK-293 cells, read-out: Y2 cAMP EC50.
Setting [3] is: Table 2, PP analogues, ACTOne HEK-293 cells, read-out: Y4 cAMP EC50.

The values that follow come from patent US20110275559A1, “Long-Acting Y2 and/or Y4 Receptor Agonists” (Novo Nordisk A/S, priority 2008, published 2011).

Molecules are shown by their SMILES. pEC50: −log10 of the molar value. Like-named read-outs stand apart in the source and are kept apart here. *1 amine or outer side, *2 acyl side, *3 side chain or, on linkers, in order; H or OH if unused. Where a SMILES comes first, the peptide text is derived from it. Side-chain parts run from the residue outwards. The star is where a group is joined. C20 diacid = O=C(O)CCCCCCCCCCCCCCCCCCC(=O)*; γGlu = O=C(O)[C@H](CCC(=O)[*:2])N[*:1]; Trx = NC[C@H]1CC[C@H](C(=O)O)CC1; AEEA = NCCOCCOCC(=O)O

T2 sequence (P50391 whole entry): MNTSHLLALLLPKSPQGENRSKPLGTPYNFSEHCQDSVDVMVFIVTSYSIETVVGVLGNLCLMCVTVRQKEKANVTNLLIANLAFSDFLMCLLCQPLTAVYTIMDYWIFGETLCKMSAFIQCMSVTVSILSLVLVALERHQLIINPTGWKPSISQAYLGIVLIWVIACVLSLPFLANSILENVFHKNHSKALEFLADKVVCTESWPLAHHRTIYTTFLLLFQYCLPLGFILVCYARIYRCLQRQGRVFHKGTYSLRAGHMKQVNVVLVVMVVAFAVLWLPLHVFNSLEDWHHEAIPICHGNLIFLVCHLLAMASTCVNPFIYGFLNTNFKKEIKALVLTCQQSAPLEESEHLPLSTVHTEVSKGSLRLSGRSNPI

In the case of `CC[C@H](C)[C@H](NC(=O)[C@H](Cc1ccc(O)cc1)NC(=O)[C@H](CCCNC(=N)N)NC(=O)[C@H](CCCNC(=N)N)NC(=O)[C@H](CC(C)C)NC(=O)[C@H](CC(=O)O)NC(=O)[C@H](C)NC(=O)[C@H](C)NC(=O)[C@H](Cc1ccc(O)cc1)NC(=O)[C@H](CCC(N)=O)NC(=O)[C@H](C)NC(=O)[C@H](CC(C)C)NC(=O)[C@H](CCC(N)=O)NC(=O)[C@H](CCC(=O)O)NC(=O)[C@@H]1CCCN1C(=O)[C@@H](NC(=O)[C@H](C)NC(=O)[C@H](CC(N)=O)NC(=O)[C@H](CC(=O)O)NC(=O)CNC(=O)[C@@H]1CCCN1C(=O)[C@H](Cc1ccc(O)cc1)NC(=O)[C@@H](NC(=O)[C@@H]1CCCN1C(=O)[C@H](CCC(=O)O)NC(=O)[C@H](CC(C)C)NC(=O)[C@@H]1CCCN1)C(C)C)[C@@H](C)O)C(=O)N[C@@H](CC(N)=O)C(=O)N[C@@H](CC(C)C)C(=O)N[C@@H](CC(C)C)C(=O)N[C@H](C(=O)N[C@@H](CCCCNC(=O)COCCOCCNC(=O)COCCOCCNC(=O)CC[C@H](NC(=O)[C@H]1CC[C@H](CNC(=O)CCCCCCCCCCCCCCCCCCC(=O)O)CC1)C(=O)O)C(=O)N1CCC[C@H]1C(=O)N[C@@H](CCCNC(=N)N)C(=O)N[C@@H](Cc1ccc(O)cc1)C(N)=O)[C@@H](C)O` [SEQ ID NO: 42, N-epsilon33-[2-(2-{2-[2-(2-{2-[(S)-4-Carboxy-4-({trans-4-[(19-carboxynonadecanoylamino)methyl]cyclohexanecarbonyl}amino)butyrylamino]-ethoxy}ethoxy)acetylamino]ethoxy}ethoxy)acetyl][Leu17,Leu30,Lys33]hPP2-36] (H-PLEPVYPGDNATPEQLAQYAADLRRYINLLTK([AEEA-AEEA-γGlu-Trx-C20 diacid])PRY-NH2), the pEC50 at Y2 receptor and at Y4 receptor was under 6.00 each time. The half-life in data set [1] (in vivo, iv, 7 nmol/kg) is 116 h; in data set [1] (male, in vivo, sc, 7 nmol/kg), 167 h.
As to `CC[C@H](C)[C@H](NC(=O)[C@H](Cc1ccc(O)cc1)NC(=O)[C@H](CCCNC(=N)N)NC(=O)[C@H](CCCNC(=N)N)NC(=O)[C@H](CC(C)C)NC(=O)[C@H](CC(=O)O)NC(=O)[C@H](C)NC(=O)[C@H](C)NC(=O)[C@H](Cc1ccc(O)cc1)NC(=O)[C@H](CCC(N)=O)NC(=O)[C@H](C)NC(=O)[C@H](CC(C)C)NC(=O)[C@H](CCC(N)=O)NC(=O)[C@H](CCC(=O)O)NC(=O)[C@@H]1CCCN1C(=O)[C@@H](NC(=O)[C@H](C)NC(=O)[C@H](CC(N)=O)NC(=O)[C@H](CC(=O)O)NC(=O)CNC(=O)[C@@H]1CCCN1C(=O)[C@H](Cc1ccc(O)cc1)NC(=O)[C@@H](NC(=O)[C@@H]1CCCN1C(=O)[C@H](CCC(=O)O)NC(=O)[C@H](CC(C)C)NC(=O)[C@@H]1CCCN1)C(C)C)[C@@H](C)O)C(=O)N[C@@H](CCCCNC(=O)COCCOCCNC(=O)COCCOCCNC(=O)CC[C@H](NC(=O)[C@H]1CC[C@H](CNC(=O)CCCCCCCCCCCCCCCCCCC(=O)O)CC1)C(=O)O)C(=O)N[C@@H](CC(C)C)C(=O)N[C@@H](CC(C)C)C(=O)N[C@H](C(=O)N[C@@H](CCCNC(=N)N)C(=O)N1CCC[C@H]1C(=O)N[C@@H](CCCNC(=N)N)C(=O)N[C@@H](Cc1ccc(O)cc1)C(N)=O)[C@@H](C)O` [SEQ ID NO: 44, N-epsilon29-[2-(2-{2-[2-(2-{2-[(S)-4-Carboxy-4-({trans-4-[(19-carboxynonadecanoylamino)methyl]cyclohexanecarbonyl}amino)butyrylamino]-ethoxy}ethoxy)acetylamino]ethoxy}ethoxy)acetyl][Leu17,Lys29,Leu30]hPP2-36] (H-PLEPVYPGDNATPEQLAQYAADLRRYIK([AEEA-AEEA-γGlu-Trx-C20 diacid])LLTRPRY-NH2), the pEC50 on Y2 receptor (setting [2]) was under 6.00; at Y4 receptor (setting [3]) it was under 6.05. In addition, the half-life in data set [1] (iv, 4 nmol/kg) was 74 h; in data set [1] (male, sc, 4 nmol/kg), 93 h.
`CC[C@H](C)[C@H](NC(=O)[C@H](Cc1ccc(O)cc1)NC(=O)[C@H](CCCCNC(=O)COCCOCCNC(=O)COCCOCCNC(=O)CC[C@H](NC(=O)[C@H]1CC[C@H](CNC(=O)CCCCCCCCCCCCCCCCCCC(=O)O)CC1)C(=O)O)NC(=O)[C@H](CCCNC(=N)N)NC(=O)[C@H](CC(C)C)NC(=O)[C@H](CC(=O)O)NC(=O)[C@H](C)NC(=O)[C@H](C)NC(=O)[C@H](Cc1ccc(O)cc1)NC(=O)[C@H](CCC(N)=O)NC(=O)[C@H](C)NC(=O)[C@H](CC(C)C)NC(=O)[C@H](CCC(N)=O)NC(=O)[C@H](CCC(=O)O)NC(=O)[C@@H]1CCCN1C(=O)[C@@H](NC(=O)[C@H](C)NC(=O)[C@H](CC(N)=O)NC(=O)[C@H](CC(=O)O)NC(=O)CNC(=O)[C@@H]1CCCN1C(=O)[C@H](Cc1ccc(O)cc1)NC(=O)[C@@H](NC(=O)[C@@H]1CCCN1C(=O)[C@H](CCC(=O)O)NC(=O)[C@H](CC(C)C)NC(=O)[C@@H]1CCCN1)C(C)C)[C@@H](C)O)C(=O)N[C@@H](CC(N)=O)C(=O)N[C@@H](CC(C)C)C(=O)N[C@@H](CC(C)C)C(=O)N[C@H](C(=O)N[C@@H](CCCNC(=N)N)C(=O)N1CCC[C@H]1C(=O)N[C@@H](CCCNC(=N)N)C(=O)N[C@@H](Cc1ccc(O)cc1)C(N)=O)[C@@H](C)O` [SEQ ID NO: 45, N-epsilon26-[2-(2-{2-[2-(2-{2-[(S)-4-Carboxy-4-({trans-4-[(19-carboxynonadecanoylamino)methyl]cyclohexanecarbonyl}amino)butyrylamino]-ethoxy}ethoxy)acetylamino]ethoxy}ethoxy)acetyl][Leu17,Lys26,Leu30]hPP2-36] (H-PLEPVYPGDNATPEQLAQYAADLRK([AEEA-AEEA-γGlu-Trx-C20 diacid])YINLLTRPRY-NH2; N-terminus and C-terminus assumed): the pEC50 at Y2 receptor is under 6.00; on Y4 receptor, 8.15. Besides, the half-life in data set [1] (in vivo, iv, 4 nmol/kg) is 58 h.
Take `CC[C@H](C)[C@H](NC(=O)[C@H](Cc1ccc(O)cc1)NC(=O)[C@H](CCCNC(=N)N)NC(=O)[C@H](CCCNC(=N)N)NC(=O)[C@H](CC(C)C)NC(=O)[C@H](CC(=O)O)NC(=O)[C@H](C)NC(=O)[C@H](C)NC(=O)[C@H](Cc1ccc(O)cc1)NC(=O)[C@H](CCC(N)=O)NC(=O)[C@H](C)NC(=O)[C@H](CC(C)C)NC(=O)[C@H](CCC(N)=O)NC(=O)[C@H](CCC(=O)O)NC(=O)[C@@H]1CCCN1C(=O)[C@@H](NC(=O)[C@H](C)NC(=O)[C@H](CC(N)=O)NC(=O)[C@H](CC(=O)O)NC(=O)CNC(=O)[C@@H]1CCCN1C(=O)[C@H](Cc1ccc(O)cc1)NC(=O)[C@@H](NC(=O)[C@@H]1CCCN1C(=O)[C@H](CCC(=O)O)NC(=O)[C@H](CC(C)C)NC(=O)[C@@H]1CCCN1)C(C)C)[C@@H](C)O)C(=O)N[C@@H](CC(N)=O)C(=O)N[C@@H](CC(C)C)C(=O)N[C@@H](CC(C)C)C(=O)N[C@H](C(=O)N[C@@H](CCCNC(=N)N)C(=O)N1CCC[C@H]1C(=O)N[C@@H](CCCCNC(=O)COCCOCCNC(=O)COCCOCCNC(=O)CC[C@H](NC(=O)[C@H]1CC[C@H](CNC(=O)CCCCCCCCCCCCCCCCCCC(=O)O)CC1)C(=O)O)C(=O)N[C@@H](Cc1ccc(O)cc1)C(N)=O)[C@@H](C)O` [SEQ ID NO: 48, N-epsilon35-[2-(2-{2-[2-(2-{2-[(S)-4-Carboxy-4-({trans-4-[(19-carboxynonadecanoylamino)methyl]cyclohexanecarbonyl}amino)butyrylamino]-ethoxy}ethoxy)acetylamino]ethoxy}ethoxy)acetyl][Leu17,Leu30,Lys35]hPP2-36] (H-PLEPVYPGDNATPEQLAQYAADLRRYINLLTRPK([AEEA-AEEA-γGlu-Trx-C20 diacid])Y-NH2): the negative-log EC50 (pEC50) at Y2 receptor (setting [2]) and at Y4 receptor (setting [3]) was under 6.00 each time. In addition, the half-life in data set [1] (iv, 10 nmol/kg) is 93 h.
